The record followed here is US4689318A, “GRF analogs” (The Salk Institute for Biological Studies, priority 1985, dated 1987).

No end group written: not given here.

The assay relates to cells of rat pituitary glands. As to the kind of experiment: in vitro GH release from cultured rat pituitary cells, side-by-side with synthetic hGRF(1-40)-OH standard, ir GH by radioimmunoassay. The note with it: equimolar concentrations; rat pituitary cell cultures; 4 hours incubation; immunoreactive GH in culture medium. The assay is classed as cell-based. The protocol: As an example of testing the effectiveness of the synthetic peptide of Example I to promote the release of growth hormone, in vitro assays are carried out using synthetic hGRF(1-40)-OH as a standard in side-by-side comparison with equimolar concentrations of the various other analogs and fragments synthesized. Cultures are used which include cells of rat pituitary glands removed four days previous to testing. Cultures which are considered optimal for the secretion of growth hormone are used for the comparative testing, in the general manner described in Vale et al. Endocrinology, 91, 562-572 (1972) and as more particularly described in Vale et al., Endocrinology, 112, 1553-1555 (1983). Incubation with the substance to be tested is carried out for 4 hours, and aliquots of the culture medium are removed and processed to measure their respective content of immunoreactive GH(ir GH) by a well-characterized radioimmunoassay.

On to “YADAIFSSAYRRLLAQLASRRLLQELLAR-NH2 [Example I, [Ser^7,8,19, Ala^9,15,18,28, Arg^12,21, Leu^13,26,27]-hGRF(1-29)-NH2]”, for which the “potency to promote the release of growth hormone relative to the hpGRF(1-40)-OH standard” value was “equivalent to the hpGRF(1-40)-OH standard”.
Turning to “YADAIFSSAYRRLLAQLASRRLLQELLAR [Example II, [Ser^7,8,19, Ala^9,15,18,28, Arg^12,21, Leu^13,26,27]-hGRF(1-29)-OH]”, the “potency to promote the release of growth hormone relative to the hpGRF(1-40)-OH standard” value is given as “equivalent to the hpGRF(1-40)-OH standard”.
